From patent publication US20040156869A1, “2-substituted quinazolin-4-ylamine analogues” (Neurogen Corporation, priority 2002, published 2004)

Target: human capsaicin receptor (VR1) (Homo sapiens, UniProt Q8NER1)
Experiment: Capsaicin receptor binding assay ([3H]RTX competition, VR1-transfected HEK293 membranes)

Sequence of human capsaicin receptor (VR1) (Q8NER1 whole entry): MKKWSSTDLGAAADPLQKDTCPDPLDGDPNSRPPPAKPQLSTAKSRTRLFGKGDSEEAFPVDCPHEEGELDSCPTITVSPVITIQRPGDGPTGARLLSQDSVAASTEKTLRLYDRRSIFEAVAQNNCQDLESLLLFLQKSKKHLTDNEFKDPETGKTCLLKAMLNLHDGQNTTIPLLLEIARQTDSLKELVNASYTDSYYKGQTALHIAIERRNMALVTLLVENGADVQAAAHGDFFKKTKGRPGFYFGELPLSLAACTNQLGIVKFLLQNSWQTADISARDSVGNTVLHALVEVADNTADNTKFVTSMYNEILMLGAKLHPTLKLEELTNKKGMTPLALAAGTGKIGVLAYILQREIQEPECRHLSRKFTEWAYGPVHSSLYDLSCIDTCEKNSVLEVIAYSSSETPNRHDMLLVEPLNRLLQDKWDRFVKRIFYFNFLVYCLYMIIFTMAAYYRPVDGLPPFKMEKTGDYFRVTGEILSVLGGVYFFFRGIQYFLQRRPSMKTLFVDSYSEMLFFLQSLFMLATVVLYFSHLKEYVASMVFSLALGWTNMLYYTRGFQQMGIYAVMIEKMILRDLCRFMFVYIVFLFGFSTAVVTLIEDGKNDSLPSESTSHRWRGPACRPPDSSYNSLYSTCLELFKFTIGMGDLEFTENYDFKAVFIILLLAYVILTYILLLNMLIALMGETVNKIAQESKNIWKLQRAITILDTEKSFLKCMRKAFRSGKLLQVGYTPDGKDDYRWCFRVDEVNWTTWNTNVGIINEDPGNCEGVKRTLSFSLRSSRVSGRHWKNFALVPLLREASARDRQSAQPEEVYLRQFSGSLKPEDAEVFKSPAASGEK

| Ki [nM] | Structure (SMILES) |
| --- | --- |
| < 1000 | OC1CCN(CCCc2nc(Nc3ccc(C(F)(F)F)cc3)c3ccc(-c4ncccc4C(F)(F)F)cc3n2)CC1 [Compound 570] |
| < 1000 | C[C@@H]1CN(Cc2nc(Nc3ccc(C(F)(F)F)cc3)c3cnc(-c4ccccc4C(F)(F)F)cc3n2)C[C@H](C)O1 [Compound 612, [2-(2,6-Dimethyl-morpholin-4-ylmethyl)-7-(2-trifluoromethyl-phenyl)-pyrido[4,3-d]pyrimidin-4-yl]-(4-trifluoromethyl-phenyl)-amine (cis)] |
| < 1000 | CCNCc1nc(Nc2ccc(C(F)(F)F)cc2)c2ccc(-c3ncccc3C(F)(F)F)cc2n1 [Compound 531, [2-Ethylaminomethyl-7-(3-trifluoromethyl-pyridin-2-yl)-quinazolin-4-yl]-(4-trifluoromethyl-phenyl)-amine] |
| < 1000 | FC(F)(F)c1ccc(Nc2nc(CN3CCOCC3)nc3cc(-c4ncccc4C(F)(F)F)cnc23)cn1 [Compound 542, [2-Morpholin-4-ylmethyl-7-(3-trifluoromethyl-pyridin-2-yl)-pyrido[3,2-d]pyrimidin-4-yl]-(6-trifluoromethyl-pyridin-3-yl)-amine] |
| < 1000 | CCOCc1nc(Nc2ccc(C(F)F)cc2)c2ccc(-c3ncccc3C(F)(F)F)nc2n1 [Compound 241, (4-Difluoromethyl-phenyl)-[2-ethoxymethyl-7-(3-trifluoromethyl-pyridin-2-yl)-pyrido[2,3-d]pyrimidin-4-yl]-amine] |
| < 1000 | Cc1cccnc1-c1ccc2c(Nc3ccc(C(F)(F)F)cc3)nc(COC3CCOCC3)nc2c1 [Compound 92, [7-(3-Methyl-pyridin-2-yl)-2-(tetrahydro-pyran-4-yloxymethyl)-quinazolin-4-yl]-(4-trifluoromethyl-phenyl)-amine] |
| < 1000 | O=C(NCCCN1CCCC1)c1nc(Nc2ccc(C(F)(F)F)cc2)c2ccc(-c3ncccc3C(F)(F)F)nc2n1 [Compound 432, 4-(4-Trifluoromethyl-phenylamino)-7-(3-trifluoromethyl-pyridin-2-yl)-pyrido[2,3-d]pyrimidine-2-carboxylic acid (3-pyrrolidin-1-yl-propyl)-amide] |
| < 1000 | Cc1cccnc1-c1ccc2c(Nc3ccc(C(F)(F)F)cc3)nc(CN3CC[C@@H](CO)C3)nc2c1 [Compound 733, (R)-{1-[7-(3-Methyl-pyridin-2-yl)-4-(4-trifluoromethyl-phenylamino)-quinazolin-ylmethyl]-pyrrolidin-3-yl}-methanol] |
| < 1000 | COCc1nc(Nc2ccc(OC(F)(F)F)cc2)c2ccc(-c3ncccc3Cl)nc2n1 [Compound 195, [7-(3-Chloro-pyridin-2-yl)-2-methoxymethyl-pyrido[2,3-d]pyrimidin-4-yl]-(4-trifluoromethoxy-phenyl)-amine] |
| < 1000 | CC(c1ccc(Nc2nc(CN3CCN(C)CC3)nc3cc(-c4ncccc4C(F)(F)F)ccc23)cc1)C(F)(F)F (centres unmarked) [Compound 526, [2-(4-Methyl-piperazin-1-ylmethyl)-7-(3-trifluoromethyl-pyridin-2-yl)-quinazolin-4-yl]-[4-(2,2,2-trifluoro-1-methyl-ethyl)-phenyl]-amine] |
| < 1000 | Cc1cccnc1-c1ccc2c(Nc3ccc(C(C)C)cc3)nc(COC3CCOCC3)nc2c1 [Compound 106, (4-Isopropyl-phenyl)-[7-(3-methyl-pyridin-2-yl)-2-(tetrahydro-pyran-4-yloxymethyl)-quinazolin-4-yl]-amine] |
| < 1000 | FC(F)(F)c1ccc(Nc2nc(Cn3ccnc3)nc3cc(-c4ncccc4C(F)(F)F)cnc23)cc1 [Compound 699, [2-Imidazol-1-ylmethyl-7-(3-trifluoromethyl-pyridin-2-yl)-pyrido[3,2-d]pyrimidin-4-yl]-(4-trifluoromethyl-phenyl)-amine] |
| < 1000 | C=C(C)CN(CC)Cc1nc(Nc2ccc(C(F)(F)F)nc2)c2ccc(-c3ncccc3C(F)(F)F)cc2n1 [Compound 380, [2-{[Ethyl-(2-methyl-allyl)-amino]-methyl}-7-(3-trifluoromethyl-pyridin-2-yl)-quinazolin-4-yl]-(6-trifluoromethyl-pyridin-3-yl)-amine] |
| < 1000 | FC(F)(F)c1ccc(Nc2cc(CN3CCSCC3)nc3nc(-c4ncccc4C(F)(F)F)ccc23)cc1 [Compound 802, [2-Thiomorpholin-4-ylmethyl-7-(3-trifluoromethyl-pyridin-2-yl)-[1,8]naphthyridin-4-yl]-(4-trifluoromethyl-phenyl)-amine] |
| < 1000 | O=S(=O)(c1ccc(Nc2nc(CO)nc3cc(-c4ncccc4C(F)(F)F)cnc23)cc1)N1CCCCC1 [Compound 202, [4-[4-(Piperidine-1-sulfonyl)-phenylamino]-7-(3-trifluoromethyl-pyridin-2-yl)-pyrido[3,2-d]pyrimidin-2-yl]-methanol] |
| < 1000 | CCC(C)c1ccc(Nc2nc(COCCOC)nc3nc(-c4ncccc4Cl)ccc23)cc1 (centres unmarked) [Compound 84, (4-sec-Butyl-phenyl)-[7-(3-chloro-pyridin-2-yl)-2-(2-methoxy-ethoxymethyl)-pyrido[2,3-d]pyrimidin-4-yl]-amine] |
| < 1000 | COCCc1nc(Nc2ccc(C(C)C)cc2)c2ccc(-c3ncccc3C(F)(F)F)cc2n1 [Compound 48, (4-Isopropyl-phenyl)-[2-(2-methoxy-ethyl)-7-(3-trifluoromethyl-pyridin-2-yl)-quinazolin-4-yl]-amine] |
| < 1000 | CCOCc1nc(Nc2ccc(C(F)(F)F)cc2)c2ccc(-c3ncccc3C)cc2n1 [Compound 90, [2-Ethoxymethyl-7-(3-methyl-pyridin-2-yl)-quinazolin-4-yl]-(4-trifluoromethyl-phenyl)-amine] |
| < 1000 | Cc1ccccc1CN(C)Cc1nc(Nc2ccc(C(F)(F)F)nc2)c2ccc(-c3ncccc3C(F)(F)F)cc2n1 [Compound 354, [2-{[Methyl-(2-methyl-benzyl)-amino]-methyl}-7-(3-trifluoromethyl-pyridin-2-yl)-quinazolin-4-yl]-(6-trifluoromethyl-pyridin-3-yl)-amine] |
| < 1000 | C[C@@H]1CN(Cc2nc(Nc3ccc(F)cc3)c3ccc(-c4ncccc4Cl)cc3n2)C[C@@H](C)O1 [Compound 622, (R,R)-(4-Fluoro-phenyl)-[7-(3-chloro-pyridin-2-yl)-2-(2,6-dimethyl-morpholin-4-ylmethyl)-quinazolin-4-yl]-amine] |
| < 1000 | CCOC(=O)c1nc(Nc2ccc(C(F)(F)F)cc2)c2ccc(-c3ncccc3C)nc2n1 [Compound 172, 7-(3-Methyl-pyridin-2-yl)-4-(4-trifluoromethyl-phenylamino)-pyrido[2,3-d]pyrimidine-2-carboxylic acid ethyl ester] |

| Structure (SMILES) | Ki [nM] |
| --- | --- |
| CC(=O)C(C)(C)c1ccc(Nc2nc(COCC(C)C)nc3nc(-c4ncccc4C(F)(F)F)ccc23)cc1 [Compound 211, 3-{4-[2-Isobutoxymethyl-7-(3-trifluoromethyl-pyridin-2-yl)-pyrido[2,3-d]pyrimidin-4-ylamino]-phenyl}-3-methyl-butan-2-one] | < 1000 |
| CC(C)COCc1nc(Nc2ccc(C(C)C(F)(F)F)cc2)c2ccc(-c3ncccc3Cl)nc2n1 (centres unmarked) [Compound 233, [7-(3-Chloro-pyridin-2-yl)-2-isobutoxymethyl-pyrido[2,3-d]pyrimidin-4-yl]-[4-(2,2,2-trifluoro-1-methyl-ethyl)-phenyl]-amine] | < 1000 |
